Assay results from patent publication US20030158250A1, “Agents correcting gene expression regulatory error” (priority 2000, published 2003).

Assays:
interleukin-10 (IL-10) = test: LPS-induced IL-10 production in RAW 264.7 cells (ELISA); assay type: cell-based; conditions: final concentration 20 μM, 5 hours, then LPS 18 hours, IL-10 in culture supernatant by ELISA
Description: RAW 264.7 cells (ATCC TIB 71) were suspended in a Dulbecco's modified Eagle's medium (manufactured by Bio Whittaker; 12-604F) containing 10% fetal bovine serum (manufactured by Gibco), so as to have a concentration of 3×10^5 cells/ml. The cell suspension was added to each well of a 48-well microtiter plate in a volume of 0.5 ml each. The cells were cultured at 37° C. in the presence of 5% CO2 gas overnight. To each well was added 5 μl of a 2 mM DGE aqueous solution (final concentration: 20 μM), and the cells were cultured for additional 5 hours. Thereafter, 5 μl of a 100 μg/ml lipopolysaccharide (LPS, manufactured by Sigma, L-2012) aqueous solution was added thereto, and the cells were cultured for 18 hours, and thereafter the culture supernatant was recovered. The content of the interleukin-10 (IL-10) in the culture supernatant was assayed by the enzyme immuno-sandwich assay. Here, the group with no addition of DGE and LPS aqueous solution (control) was set as a negative control, and the group with addition of LPS aqueous solution (control+LPS) alone was set as a positive control. In addition, all of the assays were carried out twice.

HO1 protein = HO1 protein induction in RAW 264.7 cells (Western blot); assay type: cell-based; design: key to Intensity of Bands of HO1 Protein: those showing no bands are indicated by “−,”; the intensities of the bands are indicated by +−, +, ++ in the ascending order of the intensities of the bands; the intensities of the bands are indicated by +−, +, ++ in the ascending order of the intensities of the bands; the intensities of the bands are indicated by +−, +, ++ in the ascending order of the intensities of the bands; conditions: for induction action for HO production (band ascribed to HO1 protein): 15 hours, DGE at 10 to 40 μM
Description: RAW 264.7 cells (ATCC TIB 71) were suspended in a Dulbecco's modified Eagle's medium (manufactured by Bio Whittaker; 12-604F) containing 10% fetal bovine serum (manufactured by Gibco), so as to have a concentration of 3×10^5 cells/ml. The cell suspension was added to each well of a 6-well microtiter plate in a volume of 5 ml each. The cells were cultured at 37° C. in the presence of 5% CO2 gas overnight. To each well was added 50 μl of 4 mM, 2 mM or 1 mM DGE aqueous solution (each of final concentrations: 40 μM, 20 μM or 10 μM), and the cells were cultured for 15 hours. […] The cells were harvested by peeling off the cells from the plate with a scraper. The harvested cells were suspended in 0.1 M Tris-HCl buffer (pH 7.5) containing 0.05 mM pepstatin (manufactured by Sigma, P5318), 0.2 mM leupeptin (manufactured by Sigma, L2884), 1 mM phenylmethylsulfonyl fluoride (manufactured by nakalai tesque, 273-27), 10 mM disodium dihydrogenethylenediaminetetraacetate and 0.1% Triton X-100, and subjected to freezing and thawing once. Thereafter, the supernatant obtained by centrifugation was used as a protein fraction. The protein content in the protein fraction was assayed by Micro BCA Protein Assay Reagent (one manufactured by Pierce sold by Takara Shuzo Co., Ltd., P7411). Each of the resulting protein fraction samples was mixed with an equal volume of 0.125 M Tris-HCl buffer (pH 6.8) containing 4% sodium lauryl sulfate (SDS), 2% 2-mercaptoethanol,
0.001% Bromophenol Blue and 20% glycerol, and the mixture was treated at 100° C. for 5 minutes. A mixture containing a protein in an amount of 10 μg or so was loaded on 12.5% SDS-polyacrylamide gel, and electrophoresed with a constant current of 20 mA. In a blotting buffer containing 48 mM Tris, 39 mM glycine, 20% methanol, 0.0375% SDS, the gel after the electrophoresis was transferred to a PDVF membrane (manufactured by Millipore Corporation, IPVHOOO 10) in accordance with the attached protocol, using transblot SD cell semi-drive blotting device (manufactured by BioRad), at a constant voltage of 15 V for 25 minutes. The transferred PVDF membrane was blocked overnight in a Block Ace (manufactured by DAINIPPON PHARMACEUTICAL CO., LTD., UK-B25) solution at 4° C. The blocked membrane was washed for 15 minutes thrice with phosphate-buffered physiological saline containing 0.1% Tween 20 under gentle shaking. Thereafter, the membrane was subjected to the reaction under gentle shaking in phosphate-buffered physiological saline containing 10% Block Ace with a 200 ng/ml anti-HOl antibody (N-19, manufactured by Santa Cruz, sc-7696) and 0.1% Tween 20 at room temperature for 1 hour, and was washed for 15 minutes thrice with phosphate-buffered physiological saline containing 0.1% Tween 20 under gentle shaking. Next, the membrane was subjected to the reaction under gentle shaking in phosphate-buffered physiological saline with 10% Block Ace with 0.1% peroxidase-conjugated rabbit anti-goat IgG (H+L) antibody (manufactured by Zymed, 61-1620) and 0.1% Tween 20 at room temperature for 1 hour, and was washed for 15 minutes five times with phosphate-buffered physiological saline containing 0.1% Tween 20 under gentle shaking. Subsequently, a PVDF membrane was stained by using Western blot Chemiluminescence Reagent Plus (one manufactured by NEN Life Science Products sold by Daiichikagaku, NEL103) in accordance with the attached protocol, and sensitized on an X-ray film (manufactured by Kodak, CAT 1651454). The sensitized film was developed with FPM800 (manufactured by Fuji Photo Film Co., Ltd.).
As a result, there could be confirmed a band ascribed to HO1 protein in the group with addition of DGE. […] In the table, + symbols were given in accordance with the intensity of the band for HO1 protein. In other words, in Table 3, those showing no bands are indicated by “−,” and the intensities of the bands are indicated by +−, +, ++ in the ascending order of the intensities of the bands.

interleukin-6 (IL-6) = test: TPA-induced IL-6 production in peritoneal macrophage (ELISA); assay type: cell-based; conditions: mouse peritoneal macrophage, final concentrations 20 μM and 10 μM, 14 hours, IL-6 in culture supernatant by ELISA
Description: Four milliliters of a 10% fetal bovine serum-containing RPMI 1640 medium (manufactured by Bio Whittaker, 12-702F) was intraperitoneally injected to ddy mouse (Nippon SLC, female, 7-weeks old), and the mouse was well massaged, and the medium was taken out to obtain peritoneal cells. The peritoneal cells were suspended in the 10% fetal bovine serum-containing RPMI 1640 medium so as to have a concentration of 10^6 cells/ml, and dispensed into 48-well microtiter plate in a volume of 500 μl each. The peritoneal cells were cultured at 37° C. for 2 hours in the presence of 5% CO2 gas. Thereafter, the culture supernatant was removed to give adherent cells to be used as peritoneal macrophage. To each well was freshly dispensed a Dulbecco's modified Eagle's medium (manufactured by Bio Whittaker; 12-917F) without phenol red containing 10% fetal bovine serum and 2 mM L-glutamine in a volume of 500 μl. […] The content of interleukin-6 (IL-6) in the culture supernatant was assayed by enzyme immuno-sandwich assay (ELISA: Matched antibody Pair SamplePak mouse IL-6, manufactured by Endogen). Here, the group with no addition of DGE and TPA aqueous solution (control) was set as a negative control, and the group with addition of TPA aqueous solution alone (control+TPA) was set as a positive control. In addition, all of the assays were carried out twice.

TNFα = test: LPS-stimulated TNFα production in monocytes (ELISA); assay type: cell-based; conditions: human monocytes, final concentration 50 μM, 100 μM or 200 μM, 5 hours, then LPS 4 hours
Description: PBMCs were isolated in the same manner as in item (1) of Example 4. PBMCs were suspended in RPMI 1640 medium containing 5% human serum of blood type-AB, 0.1 mM nonessential amino acid, 1 mM sodium pyruvate, 2 mM L-glutamine (hereinabove manufactured by Bio Whittaker), 10 mM HEPES (manufactured by nakalai tesque), and 1% streptomycin-penicillin (manufactured by Gibco BRL) (hereinafter simply referred to as “5HRPMI medium”) so as to have a concentration of 2×10^6 cells/ml. Thereafter, the suspension was spread on a 24-well cell culture plate (manufactured by Falcon) in a volume of 1 ml/well, and the cells were incubated in a wet-type incubator at 37° C. and 5% CO2 for 1.5 hours. After 1.5 hours, the non-adherent cells were removed by suction, and each well was washed with RPMI 1640 medium, and 1 ml of the 5HRPMI medium was added to the wells, to give monocytes.
To the monocytes obtained above was added in each well 10 μl of a 1 mM, 2 mM or 4 mM aqueous DGE solution (each having a final concentration of 10 μM, 20 μM or 40 μM), or a 5 mM, 10 mM or 20 mM aqueous agarobiose solution (each having a final concentration of 50 μM, 100 μM or 200 μM), or 10 μl of water as a control (i.e. each of concentrations of DGE and agarobiose being 0 μM), and the cells were incubated in a wet-type incubator at 37° C. and 5% CO2 for 5 hours. […]

## N[C@@H](CCC(=O)N[C@@H](CSC1CC2(O)OCC1OC2O)C(=O)NCC(=O)O)C(=O)O (stereo partly drawn) [DGE-GSH, 5-L-glutathion-S-yl-2-hydroxy-3,7-dioxabicyclo[2.2.2]octan-1-ol]
interleukin-10 (IL-10)
  inhibition of LPS-induced IL-10 production: inhibitory action
HO1 protein
  induction action for HO production (band ascribed to HO1 protein): induction action
interleukin-6 (IL-6)
  inhibition of TPA-induced IL-6 production: inhibitory action
HL-60 cells
  inhibitory activity for cancer cell proliferation: active

## OC[C@H]1O[C@@H](O[C@H]2[C@H]3OC[C@@H]2OC(O)[C@H]3O)[C@H](O)[C@@H](O)[C@H]1O (mixture of isomers) [agarobiose]
TNFα
  inhibition of LPS-stimulated TNFα production: inhibition

## CCCCC/C=C/C=C1/C(=O)C=C[C@@H]1C/C=C\CCCC(=O)O [15-Deoxy-Δ12,14 prostaglandin J2, reference compound]
HO1 protein; 5 μl of 3 mM dimethyl sulfoxide solution added to 5 ml well, positive control
  Intensity of Bands of HO1 Protein: ++

## O=C1C=CC(CO)OC1O [κ-DGE, D-Glycero-1,5-epoxy-1αβ,6-dihydroxy-cis-hex-3-en-2-one]
interleukin-10 (IL-10)
  inhibition of LPS-induced IL-10 production: inhibitory action
HO1 protein
  induction action for HO production (band ascribed to HO1 protein): induction action
interleukin-6 (IL-6); listed as K-DGE
  inhibition of TPA-induced IL-6 production: inhibitory action
